For orientation: CC50 means the concentration giving 50% cytotoxicity. Broadly, the IC50 is the concentration needed to halve the response being measured.

Two compounds from patent publication US20250332154A1, “USE OF NAPHTHOQUINE PHOSPHATE IN PREPARATION OF A MEDICAMENT FOR TREATING AUTOIMMUNE DISEASES” (SHANGHAI PHARMACEUTICALS INDUSTRY CO., LTD, priority 2022, published 2025) can be followed below.

Series [1] is described as follows: Non-specific cytotoxicity assay (MTT), mouse spleen lymphocytes. It counts as cell-based. Conditions: BALB/c, mouse, mouse whole spleen lymphocytes. Here is the method: BALB/c mice were sacrificed by cervical dislocation, and spleens were aseptically excised to prepare whole spleen lymphocytes. The cells were adjusted to the required concentration. The compound concentrations started at 250 μM and was diluted with a 4-fold gradient to obtain 10 concentrations: 250, 62.5, 15.625, 3.906, 0.977, 0.244, 0.061, 0.015, 0.004 and 0.001 μM.
A suspension of mouse spleen lymphocytes was inoculated into a 96-well plate at 8×10^5/well, and the above 10 concentration gradients of the compound were added. A corresponding cell control (i.e. spleen lymphocyte culture system without compound) and a RPMI 1640 culture medium background control (blank culture medium control) were set up. The cells were cultured in a 37° C., 5% CO2 incubator for 48 hours. Four hours before the end of the culture, 20 μl of 5 mg/ml MTT solution was added, and the reaction continued until the end of the culture (i.e. the aforementioned 48 hours). The supernatant was aspirated and discarded, 200 μl DMSO was added to each well to dissolve the crystals. […]. The absorbance value was measured at […] with a microplate reader (Spectra Max 190, Molecular Devices).

For series [2], the system named is mouse whole spleen lymphocytes (ConA-induced T cell activation and proliferation). Kind of series: ConA-induced lymphocyte proliferation assay (3H-thymidine). Conditions: Mus musculus, Lymphocyte, read-out: ConA IC50. It counts as cell-based. The method, then: (§1) BALB/c mice were sacrificed by cervical dislocation, and spleens were aseptically excised to prepare whole spleen lymphocytes. The cells were adjusted to the required concentration.
(§2) A suspension of mouse spleen lymphocytes was inoculated into a 96-well plate at 5×10^5/well, and ConA (final concentration: 1 μg/ml) or LPS (final concentration: 10 μg/ml) and the above 10 concentration gradients of the compound were added. Corresponding cell control wells without ConA and LPS, as well as medicament-free stimulated control wells, were set up. The cells were cultured in a 37° C., 5% CO2 incubator for 48 hours. Eight hours before the end of the culture, ^3H-thymidine was added, and the culture continued until the end of the experiment (i.e., the aforementioned 48 hours). The cells were collected onto glass fiber membranes using a cell collector.
(§3) ConA and LPS, as mitogens, stimulated proliferation and differentiation of T and B lymphocytes, respectively. This process is similar to the activation process of lymphocytes in vivo. Therefore, mitogen-induced lymphocyte proliferation is commonly used as an indicator to evaluate functionality of lymphocytes.

The subject of series [3] is mouse whole spleen lymphocytes (LPS-induced B cell activation and proliferation). Kind of series: LPS-induced lymphocyte proliferation assay (3H-thymidine). The series is classed as cell-based. Conditions: Mus musculus, Lymphocyte, read-out: LPS IC50. The method, then:
as §1, §2, §3

The next series has as its system RAW264.7 cells. The experiment in a line: Non-specific cytotoxicity assay (MTT), RAW264.7. Conditions: 48 hours. The series is classed as cell-based, mouse. Here is the method:
RAW264.7 cells were inoculated into a 96-well plate at 1×10^5/well and allowed to adhere to the wall for 6 hours in a 37° C., 5% CO2 incubator. […] A corresponding solvent control (cell control) and a culture medium background control (blank control) were set up. The cells were cultured in a 37° C., 5% CO2 incubator for 48 hours. Fifteen minutes before the end of the culture, 20 μl of 5 mg/ml MTT was added. At the end of the culture, the supernatant was aspirated and discarded, 200 μl DMSO was added to dissolve the crystals.

Another series deals with TNF-α. The experiment in a line: TNF-α production by LPS-induced RAW264.7 cells (ELISA). The series is classed as cell-based, mouse. The method, then: (§4) RAW264.7 cells were inoculated into a 96-well plate at 1×10^5/well and allowed to adhere to the wall for 6 hours in a 37° C., 5% CO2 incubator. […] After the cells adhered to the wall, the stimulant LPS (final concentration: 10 μg/ml) and the gradient-diluted compounds were added. A corresponding stimulation control and a cell control (without stimulation) were set up. After the end of the culture, the cell culture supernatants were collected, and the levels of TNF-α, IL-1β and IL-6 were measured by ELISA.

Another series relates to IL-1β. Kind of series: IL-1β production by LPS-induced RAW264.7 cells (ELISA). The series is classed as cell-based, mouse. Here is the method:
as §4

Another series relates to IL-6. The experiment in a line: IL-6 production by LPS-induced RAW264.7 cells (ELISA). It counts as cell-based, mouse. The method, then: as §4
Background: ELISA stands for enzyme-linked immunosorbent assay.

As to `CCN(CC)CCCC(C)Nc1ccnc2cc(Cl)ccc12` (stereo not shown) [Chloroquine Phosphate], the CC50 at 48 h in series [1] amounted to 26.9 µM. Also, the IC50 came out at 14.3 µM in series [2] and 15.1 µM in series [3].

Chloroquine Sulfate registered a CC50 in the series with RAW264.7 cells of 26.6 µM. In addition, the IC50 in the series with TNF-α (LPS 10 μg/ml, RAW264.7) was found to be 32.6 µM; with IL-1β (LPS 10 μg/ml, RAW264.7, read-out: IB-1β IC50), 2.72 µM; with IL-6 (LPS 10 μg/ml, RAW264.7), 14.7 µM. The “production of TNF-α” value with TNF-α (LPS-induced RAW264.7, in words) was “no significant effect”. Further, the “production of LPS-induced IL-1β” value in the series on IL-1β (RAW264.7, in words) is reported as “significantly inhibited”. Besides, the “production of IL-6” value in the series with IL-6 (LPS-induced RAW264.7, in words) is “no significant effect”.
